In the NIST ThermoML archive (doi:10.1016/j.tca.2014.03.027):
± gives the expanded uncertainty stated by the source.

What was measured:
[1] = molar heat capacity at constant pressure; conditions: 298.15 K; 101.33 kPa; Liquid; Small sample (50 mg) DSC
[2] = xn = mol fraction of the nth substance listed; conditions: 101 kPa, Liquid, Small sample (50 mg) DSC
[3] = 298.15 K; 101.33 kPa; Liquid; Vibrating tube method

CCCCCCC [heptane]
Conditions	molar heat capacity at constant pressure [J/K/mol]
[1]	223.91 ± 4.5

NCc1ccccc1 [benzylamine] + CCCCCO
excess molar heat capacity [J/K/mol], [2]
Conditions	293.15 K	298.15 K	308.15 K
x2 = 0.0495	2.15 ± 0.2	2.31 ± 0.21	2.12 ± 0.2
x2 = 0.1528	5.18 ± 0.34	5.79 ± 0.37	5.71 ± 0.36
x2 = 0.2765	8.64 ± 0.51	8.73 ± 0.51	8.42 ± 0.5
x2 = 0.2967	9.27 ± 0.54	9.48 ± 0.55	8.89 ± 0.52
x2 = 0.4512	12.51 ± 0.7	12.28 ± 0.69	11.2 ± 0.64
x2 = 0.4994	13.7 ± 0.76	13.25 ± 0.74	12.08 ± 0.68
x2 = 0.6006	13.71 ± 0.76	13.13 ± 0.73	11.91 ± 0.67
x2 = 0.6516	12.63 ± 0.71	12.04 ± 0.68	10.9 ± 0.62
x2 = 0.7019	11.57 ± 0.65	10.98 ± 0.62	9.9 ± 0.57
x2 = 0.7998	9.04 ± 0.53	8.54 ± 0.5	7.76 ± 0.46
x2 = 0.8493	7.39 ± 0.44	7.06 ± 0.43	6.31 ± 0.39
x2 = 0.899	5.41 ± 0.35	5.16 ± 0.34	4.6 ± 0.31
x2 = 0.9505	2.72 ± 0.23	2.46 ± 0.21	2.3 ± 0.21

NCc1ccccc1 [benzylamine] + CCCCCCC
[2], 293.15 K
Conditions	excess molar heat capacity [J/K/mol]
x1 = 0.1982	0.78 ± 0.17
x1 = 0.2473	1.66 ± 0.18
x1 = 0.2989	3.35 ± 0.25
x1 = 0.3496	4.17 ± 0.29
x1 = 0.3734	4.88 ± 0.32
x1 = 0.3986	5.87 ± 0.37
x1 = 0.4976	6.51 ± 0.4
x1 = 0.5988	5.47 ± 0.35
x1 = 0.6983	3.47 ± 0.26
x1 = 0.7991	1.46 ± 0.18

NCc1ccccc1 [benzylamine] + CO
excess molar heat capacity [J/K/mol], [2]
Conditions	293.15 K	298.15 K	308.15 K
x2 = 0.0537	1.16 ± 0.17	1.26 ± 0.17	1.59 ± 0.18
x2 = 0.1106	2.61 ± 0.22	2.84 ± 0.23	3.36 ± 0.25
x2 = 0.2041	5.02 ± 0.33	5.43 ± 0.35	6.08 ± 0.38
x2 = 0.2963	7.9 ± 0.47	8.16 ± 0.48	8.87 ± 0.52
x2 = 0.3518	9.32 ± 0.54	9.77 ± 0.56	10.2 ± 0.58
x2 = 0.397	10.86 ± 0.62	11.3 ± 0.64	11.89 ± 0.67
x2 = 0.4966	12.24 ± 0.69	12.88 ± 0.72	13.26 ± 0.74
x2 = 0.5512	12.66 ± 0.71	13.17 ± 0.74	13.67 ± 0.76
x2 = 0.5987	12.63 ± 0.71	12.99 ± 0.73	13.38 ± 0.75
x2 = 0.6991	10.63 ± 0.61	11.13 ± 0.63	11.55 ± 0.65
x2 = 0.7484	9.18 ± 0.53	9.49 ± 0.55	10 ± 0.57
x2 = 0.7988	7.43 ± 0.45	7.67 ± 0.46	8.28 ± 0.49
x2 = 0.849	4.92 ± 0.32	5.29 ± 0.34	5.72 ± 0.36
x2 = 0.9009	3.22 ± 0.25	3.49 ± 0.26	3.8 ± 0.27

NCc1ccccc1 [benzylamine]
Conditions	mass density [kg/m3]	molar heat capacity at constant pressure [J/K/mol]
[1]	–	206.74 ± 4.1
[3]	978.337 ± 0.23	–

CCCCCO [pentan-1-ol]
Conditions	molar heat capacity at constant pressure [J/K/mol]
[1]	206.67 ± 4.1

NCc1ccccc1 [benzylamine] + CCCO
excess molar heat capacity [J/K/mol], [2]
Conditions	293.15 K	298.15 K	308.15 K
x2 = 0.0665	1.89 ± 0.19	2.55 ± 0.22	2.84 ± 0.23
x2 = 0.1004	2.96 ± 0.24	3.37 ± 0.25	3.45 ± 0.26
x2 = 0.1986	6.26 ± 0.39	6.74 ± 0.41	6.5 ± 0.4
x2 = 0.2994	9.38 ± 0.54	9.67 ± 0.56	9.53 ± 0.55
x2 = 0.4007	11.35 ± 0.64	11.45 ± 0.65	11.18 ± 0.63
x2 = 0.4477	11.83 ± 0.67	11.95 ± 0.67	11.58 ± 0.65
x2 = 0.5497	13.34 ± 0.74	13.25 ± 0.74	12.85 ± 0.72
x2 = 0.6032	13.04 ± 0.73	12.99 ± 0.73	12.57 ± 0.7
x2 = 0.6515	12.75 ± 0.71	12.91 ± 0.72	12.84 ± 0.72
x2 = 0.6998	12.05 ± 0.68	12.14 ± 0.68	11.7 ± 0.66
x2 = 0.8014	9.42 ± 0.55	9.48 ± 0.55	9.06 ± 0.53
x2 = 0.849	7.29 ± 0.44	7.32 ± 0.44	7.22 ± 0.44
x2 = 0.9003	4.9 ± 0.32	5.05 ± 0.33	4.75 ± 0.32

CO [methanol]
Conditions	molar heat capacity at constant pressure [J/K/mol]
[1]	80.81 ± 1.6

CCCO [propan-1-ol]
Conditions	molar heat capacity at constant pressure [J/K/mol]
[1]	143.41 ± 2.9
